Measured values: US11504394B2, “Targeted ionophore-based metal delivery” (The Regents of the University of California, priority 2018, dated 2022)

Experiments:
[1] = Log P, shake-flask octanol-water partition; assay type: physicochemical; conditions: n-octanol / PBS (pH=7.4), error = standard deviation
Protocol: Log P measurements were performed with The shake-flask method based on compound partitioning between n-octanol and PBS (pH=7.4) layers. Octanol (saturated with PBS) and PBS (saturated with octanol) was obtained by vigorous mixing for one hour followed by layer separation in a separatory funnel over 24 hours. For Gal-Cu(gtsm): 500 μL of standard solutions were made with 100, 50, 20, 10, and 5 μM of Gal-Cu(gtsm) dissolved in PBS-saturated octanol. 50 mM stock solution in DMSO was diluted to 100 μM final concentration with 490/10, 480/20, and 460/40 μL of saturated octanol/PBS. For Cu(gtsm): 500 μL of standard solutions were made with 100, 50, 20, 10, and 5 μM of […]. 50 mM stock solution in DMSO was diluted to 100 μM final concentration with 10/490, […], and 50/450 μL of saturated octanol/PBS. All standards and samples were vortexed vigorously in 1.7 mL microcentrifuge tubes for 60 seconds, then spun down at 12,000 g for 2 mins in a microcentrifuge. 200 μL of each standard and sample were added to a clear 96-well plate, and the blank-subtracted absorbance at 470 nm was read in a Synergy M2 plate reader. All standards and samples were measured in duplicate. Log P values were calculated from the subsequent partition coefficients and averaged across the three partition conditions to obtain the final log P value. […]

[2] = Retention of copper in presence of excess Zn^2+ and Fe^2+; assay type: physicochemical; conditions: 1000-fold excess of Zn^2+ and Fe^2+
Protocol: All spectroscopic measurements were performed in 20 mM PBS, pH 7.4 unless otherwise indicated. Absorption spectra were acquired on a Varian Cary 50 spectrophotometer.

[3] = system: HepG2 (ASGPR-expressing) cells; assay: Cellular copper delivery by ICP-MS, HepG2; assay type: cell-based
Protocol: Cells were maintained by the UC Berkeley Tissue Culture Facility. HEK 293T and HepG2 cells were maintained as a monolayer in exponential growth at 37° C. in a 5% CO2 atmosphere. HEK 293T cells were maintained in Dulbecco's Modified Eagle Medium (DMEM, Gibco) supplemented with 10% fetal bovine serum (FBS, Hyclone), and glutamax (Gibco). HepG2 cells were maintained in low glucose DMEM with L-glutamine and sodium pyruvate (Gibco). One day before ionophore treatment, cells were passaged and plated in DMEM with glutamax supplemented with 10% FBS on either poly D-lysine-coated (HEK 293T) or gelatin-coated (HepG2) sterile 6-well Corning polystyrene plates. Cells were grown to 60 to 80% confluency prior to ionophore treatment.
Cells were washed twice with serum-free DMEM. 2 mM stock solutions of Cu(gtsm) or Gal-Cu(gtsm) were diluted in serum-free DMEM to a final ionophore concentration of 4 μM. 2 mL of vehicle (0.2% DMSO in DMEM), 4 μM Cu(gtsm), or 4 μM Gal-Cu(gtsm) were then added to the 6-well plates and incubated for three hours. For the galactose competition experiment, cells were washed twice with serum-free DMEM, then incubated with 2 mL serum-free DMEM either with or without 1 M D-galactose (Sigma Aldrich) for 15 minutes. 4 μL of DMSO, 2 mM Cu(gtsm), or 10 mM Gal-Cu(gtsm) was diluted with 300 μL of cell media, which was then mixed back into each well. Cells were then incubated for one hour. Cells were then rinsed twice with ice-cold EDTA (1 mM in 50 mM HEPES buffer, pH=7.4) to remove cell surface-bound copper and rinsed twice with ice-cold 50 mM HEPES buffer (pH=7.4), followed by the addition of 215 μL concentrated nitric acid (BDH Aristar Ultra). The plates were sealed with Parafilm and incubated on a shaker overnight. Samples (150 μL) were further diluted in 2 mL 2% nitric acid (made freshly from concentrated nitric acid and Milli-Q water) in 15 mL tubes (Sarstedt) and analyzed on a Thermo Fisher iCAP Qc ICP mass spectrometer in kinetic energy discrimination (KED) mode against a standard curve of known copper and phosphorus concentrations (CMS-5, Inorganic Ventures), with Ga (20 μg/L, Inorganic Ventures) as an internal standard. Each experiment was carried out twice and each condition was repeated in at least triplicate.

[4] = system: CTR1; assay: Western blot of liver lysates, CTR1; assay type: in vivo, mouse; conditions: 6 and 24 hour timepoints
Protocol: Frozen mouse livers were minced into 50 mg samples on dry ice and homogenized in ice-cold RIPA buffer (25 mM Tris.HCl pH 7.6, 150 mM NaCl, 1% NP-40, 1% sodium deoxycholate, 0.1% SDS) containing protease inhibitor cocktail with EDTA (Roche) at 100 mg/mL using a hand-held mechanical homogenizer. Homogenates were incubated on ice for 30 min and centrifuged at 12,000×g for 20 min at 4° C. The soluble protein lysates were collected from underneath the upper lipid layer with a pipette and transferred to new tubes. Protein concentration was determined using a detergent-compatible Bradford Assay (Pierce).
Protein lysates were denatured in NuPAGE lithium dodecyl sulfate sample buffer (Invitrogen) containing 10% v/v β-mercaptoethanol as a reducing agent. […] The membranes were washed 5 times for 5 minutes in TBST, then visualized using enhanced chemiluminescence (Western Lighting Plus for visualizing CCS and ATP7B, Perkin Elmer; Western Clarity Max for visualizing CTR1 and MT, Bio-Rad) recorded on a BioRad GelDoc imaging station. β-actin was probed to determine equal loading using anti-β-actin (sc-69879, Santa Cruz Biotechnology) and AlexaFluor 647-conjugated anti-mouse IgG (A31571, Molecular Probes) antibodies at 1:5000 and 1:2500 dilutions, respectively, with visualization using fluorescence recorded on a BioRad GelDoc imaging station.

Structure (SMILES): CNC1=N[N+]2=CC=[N+]3N=C(NCCOCCOCCOC4OC(CO)C(O)C(O)C4NC(C)=O)[S][Cu-2]23[S]1 (stereo not shown) [Gal-Cu(gtsm)]
- log P [1]: −1.03±0.10
- retention of copper in presence of other metal ions [2]: retains copper selectively
- Cu increase relative to basal levels (^63Cu/^31P) ([3]; HepG2, 4 μM, three hours, serum-free DMEM): 4 fold
- temperature dependent uptake ([3]; HepG2, 4° C. vs 37° C.): much higher uptake at 37 °C than at 4 °C
- Cu delivery in presence of D-galactose (competitive ASGPR ligand) ([3]; HepG2, D-galactose 1 M, one hour, Cu(gtsm) 4 μM, Gal-Cu(gtsm) 20 μM): significantly attenuated
- dose response of cellular copper content ([3]; HepG2, ICP-MS total copper): robust dose-dependent copper delivery response
- CTR1 expression (monomer and truncated forms) in liver [4]: Increased expression
